Test results from patent publication US20180185408A1, “ANTIFUNGAL NYLON-3 POLYMERS AND COMBINATION THERAPY USING THEM TO TREAT FUNGAL INFECTIONS” (priority 2016, published 2018).
In brackets after ≈: the same amount, converted by molar mass. Read-outs that look alike come from different tables or passages of the source.

Assays:
Assay type in all cases: cell-based
[1] = test system: Candida lusitaniae; experiment: MIC by broth microdilution (CLSI M27-A3); details: CL3, […]10^5 cells/mL, 30°C, OD600 48 h
[2] = test system: Candida albicans; experiment: Minimum fungicidal concentration (MFC), plating after MIC assay; details: […]10^5 cells/mL
[3] = test system: Candida lusitaniae; experiment: as above; details: C. Lusitania (CL3), Sensitive; RPMI 1640 (0.2% Glucose); […]10^5 cells/mL; 30° C.
[4] = test system: Cryptococcus neoformans; experiment: MIC by broth microdilution (CLSI M27-A3); details: […]10^3 cells/mL
[5] = test system: Cryptococcus gattii; experiment: MIC by broth microdilution (CLSI M27-A3); details: […]10^3 cells/mL
[6] = test system: Cryptococcus neoformans; experiment: Minimum fungicidal concentration (MFC), plating after MIC assay; details: RPMI 1640 (0.2% Glucose), […]10^3 cells/mL, 37° C.
[7] = test system: Cryptococcus gattii; experiment: as above; details: Sensitive, RPMI 1640 (0.2% Glucose), […]10^3 cells/mL, 37° C.
[8] = test system: Candida spp.; experiment: MIC and MFC by broth microdilution, summary over Candida strains; details: Candida test strains, except resistant strain E4
[9] = test system: Cryptococcus spp.; experiment: MIC and MFC by broth microdilution, summary over Cryptococcus strains

C[C@@H]1[C@H](O)[C@@H](C)/C=C/C=C/C=C/C=C/C=C/C=C/C=C/[C@H](O[C@@H]2O[C@H](C)[C@@H](O)[C@H](N)[C@@H]2O)C[C@@H]2O[C@](O)(C[C@@H](O)C[C@@H](O)[C@H](O)CC[C@@H](O)C[C@@H](O)CC(=O)O[C@H]1C)C[C@H](O)[C@H]2C(=O)O [AMB, amphotericin B]
MIC ([1]; avg., read-out: MIC): 0.4 µM | MIC ([1]; trial 1): 0.4 µg/mL | MIC ([1]; trial 1, read-out: MIC): 0.4 µM | MIC ([1]; trial 2): 0.4 µg/mL | MFC ([2]; C. albicans (E4), Amp B Resistant, RPMI 1640 (0.2% Glucose), 30° C.): 12.5 µg/mL | MFC ([2]; C. albicans (Gu5), Fluconazole Resistant, RPMI 1640 (0.2% Glucose), 30° C.): 1.56 µg/mL | MFC ([2]; C. albicans (K1), Fluconazole Resistant, RPMI 1640 (0.2% Glucose), 30° C.): 3.13 µg/mL | MFC ([2]; C. albicans (SCG5314), Sensitive, RPMI 1640 (0.2% Glucose), 30° C.): 1.56 µg/mL | MFC ([2]; E4, 30°C, avg.): 12.5 µg/mL | MFC ([2]; E4, 30°C, avg., read-out: MFC): 13.5 µM | MFC ([2]; E4, 30°C, trial 1): 12.5 µg/mL | MFC ([2]; E4, 30°C, trial 1, read-out: MFC): 13.5 µM | MFC ([2]; E4, 30°C, trial 2): 12.5 µg/mL | MFC ([2]; E4, 30°C, trial 2, read-out: MFC): 13.5 µM | MFC ([2]; Gu5, 30°C, avg.): 1.6 µg/mL | MFC ([2]; Gu5, 30°C, avg., read-out: MFC): 1.7 µM | MFC ([2]; Gu5, 30°C, trial 1): 1.6 µg/mL | MFC ([2]; Gu5, 30°C, trial 1, read-out: MFC): 1.7 µM | MFC ([2]; Gu5, 30°C, trial 2): 1.6 µg/mL | MFC ([2]; Gu5, 30°C, trial 2, read-out: MFC): 1.7 µM | MFC ([2]; K1, 30°C, avg.): 3.1 µg/mL | MFC ([2]; K1, 30°C, avg., read-out: MFC): 3.4 µM | MFC ([2]; K1, 30°C, trial 1): 3.1 µg/mL | MFC ([2]; K1, 30°C, trial 1, read-out: MFC): 3.4 µM | MFC ([2]; K1, 30°C, trial 2): 3.1 µg/mL | MFC ([2]; K1, 30°C, trial 2, read-out: MFC): 3.4 µM | MFC ([2]; SC5314, 30°C, avg.): 1.6 µg/mL | MFC ([2]; SC5314, 30°C, avg., read-out: MFC): 1.7 µM | MFC ([2]; SC5314, 30°C, trial 1): 1.6 µg/mL | MFC ([2]; SC5314, 30°C, trial 1, read-out: MFC): 1.7 µM | MFC ([2]; SC5314, 30°C, trial 2): 1.6 µg/mL | MFC ([2]; SC5314, 30°C, trial 2, read-out: MFC): 1.7 µM | MFC [3]: 1.56 µg/mL (≈ 1.69 µM) | MIC ([4]; B3501, 30°C, […]): 0.8 µg/mL | MIC ([4]; B3501, 30°C, […], Table 15): 0.9 µM | MIC ([4]; C21F3, 30°C, OD600 48 h): 0.8 µg/mL | MIC ([4]; C21F3, 30°C, OD600 48 h, Table 15): 0.9 µM | MIC ([4]; C. neoformans (B3501), Sensitive, RPMI 1640 (0.2% Glucose), 37° C.): 0.8 µg/mL | MIC ([4]; C. neoformans (B3501), 30°C): 0.9 µM | MIC ([4]; C. neoformans (C21F3), 30°C): 0.9 µM | MIC ([4]; C. neoformans (H99), Sensitive, RPMI 1640 (0.2% Glucose), 37° C.): 1.6 µg/mL | MIC ([4]; C. neoformans (H99), 30°C): 1.7 µM | MIC ([4]; C. neoformans (JEC21), Sensitive, RPMI 1640 (0.2% Glucose), 37° C.): 0.2 µg/mL | MIC ([4]; C. neoformans (JEC21), 30°C): 0.2 µM | MIC ([4]; H99, 30°C, OD600 48 h): 1.6 µg/mL | MIC ([4]; H99, 30°C, OD600 48 h, Table 15): 1.7 µM | MIC ([4]; JEC21, 30°C, OD600 48 h): 0.2 µg/mL | MIC ([4]; JEC21, 30°C, OD600 48 h, Table 15): 0.2 µM | MIC ([4]; […], RPMI 1640 (0.2% Glucose), 37° C.): 0.8 µg/mL | MIC ([5]; C751, 30°C, OD600 48 h): ≤0.2 µg/mL | MIC ([5]; C751, 30°C, OD600 48 h, Table 15, read-out: MIC): ≤0.2 µM | MIC ([5]; C. gattii (C751), Sensitive, RPMI 1640 (0.2% Glucose), 37° C.): ≤0.2 µg/mL | MIC ([5]; C. gattii (C751), 30°C, read-out: MIC): ≤0.2 µM | MIC ([5]; C. gattii (WM275), Sensitive, RPMI 1640 (0.2% Glucose), 37° C.): 0.8 µg/mL | MIC ([5]; C. gattii (WM276), 30°C, read-out: MIC): 0.9 µM | MIC ([5]; WM276, 30°C, OD600 48 h): 0.8 µg/mL | MIC ([5]; WM276, 30°C, OD600 48 h, Table 15, read-out: MIC): 0.9 µM | MFC ([6]; C. neoformans (B3501), Sensitive): 0.8 µg/mL (≈ 0.866 µM) | MFC ([6]; C. neoformans (C21F3), Rapamycin Resistant): 0.8 µg/mL (≈ 0.866 µM) | MFC ([6]; C. neoformans (H99), Sensitive): 1.6 µg/mL (≈ 1.73 µM) | MFC ([6]; C. neoformans (JEC21), Sensitive): 0.4 µg/mL (≈ 0.433 µM) | MFC ([7]; C. gattii (C751)): 0.8 µg/mL (≈ 0.866 µM) | MFC ([7]; C. gattii (WM275)): 3.1 µg/mL (≈ 3.35 µM) | MIC and MFC values [8]: sub-μM | MIC ([9]; Cryptococcus test strains): ~1 µM (≈ 0.924 µg/mL) | MFC ([9]; Cryptococcus test strains (FLC: all strains except C21F3)): ~1 µM (≈ 0.924 µg/mL)
